According to patent US11007155B2, “Method for producing a sea urchin extract enriched with 1,4-polyhydroxylated naphthoquinones with antimicrobial and antioxidant activity” (Universidad Técnica Federico Santa María, priority 2016, dated 2021):
Converted amounts (≈) assume the structure as drawn. Like-named read-outs stand apart in the source and are kept apart here.

Key:
E. coli = experiment: Antibacterial activity (MIC) against clinical isolates; format: cell-based; conditions: Escherichia coli
From the text: (§1) In order to test the antibiotic activity of these compounds, the inventors studied the antibacterial activity, measured as minimum inhibitory concentration (MIC), of the black sea urchin (Tetrapygus niger) extract enriched in equinochrome A (85% purity) and the purified EqA.

Klebsiella pneumoniae = experiment: as above; format: cell-based; conditions: resistant to ampicillin, aztreonam, cephalothin, cefepime, cefotaxime, ceftazidime
From the text: as §1

Pseudomona aeruginosa = experiment: as above; format: cell-based
From the text: as §1

S. aureus = experiment: as above; format: cell-based; conditions: Staphylococcus aureus, resistant to penicillin
From the text: as §1

Klebsiella oxytica = experiment: as above; format: cell-based; conditions: resistant to ampicillin
From the text: as §1

[1] = Storage stability of the product; format: physicochemical; conditions: stored at −20° C
From the text: The process of the invention begins with spawning, which is induced by injection of KCl (0.5 M) into the perivisceral coelom. The induced urchin females are deposited on a smaller diameter vessel, which contains filtered and sterile seawater, where the eggs are received. The collected eggs are filtered, preferably using a fine sieve of pore size 1/32 inches (0.079375 centimeters) to remove impurities. Afterwards it is washed with filtered and sterile seawater. The excess water is subsequently removed by decanting the eggs. Then the eggs are dried at 60-80° C. for 24-72 hours, and are ground to a fine powder, which is cleaned by passing through a sieve of pore size 1/120 inches (0.021 centimeters). The product is then extracted by mixing the powder with methanol or ethanol at a proportion of 1:30 v/v under constant agitation. It is further filtered to remove the egg debris and evaporated under vacuum at 55° C. to 1/10 of the initial volume. The resulting extract is purified by chromatography with a C18 RP column, elution with 30-40% methanol to extract mainly spinochrome E, and finally an elution with 100% ethanol for the extraction of EqA.

[2] = DPPH radical capture assay (antioxidant activity)
From the text: The antioxidant activity of EqA is dependent on the concentration of the pigment, the pH and the concentration of calcium. In the absence of calcium, the antioxidant activity is observed only at alkaline pH, but in the presence of calcium, the antioxidant activity is observed at alkaline pH and neutral pH, by the formation of stable semiquinone-calcium complexes (Levedeb et al., Archives of Biochemistry and Biophysics (2003) 413: 191-198). The invention is illustrated in the following examples:
The antioxidant activity of the purified extract and equinochrome A was evaluated by the DPPH radical capture assay (2, 2-diphenyl-1-picryihydracil) (Shankarlal et al., (2011) Am-Euras, J. Sci. Res. 6:178-181).

CCc1c(O)c(O)c2c(c1O)C(=O)C(O)=C(O)C2=O [EqA, 6-ethyl-2,3,5,7,8-pentahydroxy-1,4-naphthoquinone]
MIC (E. coli; pH 5, pH 5, hemocultivo isolate, antibiotic resistance —): 32 µg/mL (≈ 120 µM)
MIC (E. coli; pH 5, pH 5, hemocultivo isolate, resistant to ampicillin, chloramphenicol, cotrimoxazole): 32 µg/mL (≈ 120 µM)
MIC (E. coli; pH 5, pH 5, urine isolate, resistant to ampicillin, aztreonam, cefepime, cefotaxime, ceftazidime, ciprofloxacin): 32 µg/mL (≈ 120 µM)
MIC (E. coli; pH 7, pH 7, hemocultivo isolate, antibiotic resistance —): > 64 µg/mL
MIC (E. coli; pH 7, pH 7, hemocultivo isolate, resistant to ampicillin, chloramphenicol, cotrimoxazole): > 64 µg/mL
MIC (E. coli; pH 7, pH 7, urine isolate, resistant to ampicillin, aztreonam, cefepime, cefotaxime, ceftazidime, ciprofloxacin): 64 µg/mL (≈ 240 µM)
MIC (Klebsiella pneumoniae; Klebsiella pneumoniae, pH 5, urine isolate, ertapenem, nitrofurantoin, read-out: MIC): 64 µg/mL (≈ 240 µM)
MIC (Klebsiella pneumoniae; Klebsiella pneumoniae, pH 7, urine isolate, ertapenem, nitrofurantoin, read-out: MIC): > 64 µg/mL
MIC (Klebsiella pneumoniae; pH 5, hemocultivo isolate, ciprofloxacin, chloramphenicol, colistin, cotrimoxazole, gentamicin): 64 µg/mL (≈ 240 µM)
MIC (Klebsiella pneumoniae; pH 5, urine isolate, nitrofurantoin): 64 µg/mL (≈ 240 µM)
MIC (Klebsiella pneumoniae; pH 7, hemocultivo isolate, ciprofloxacin, chloramphenicol, colistin, cotrimoxazole, gentamicin): >64 µg/mL
MIC (Klebsiella pneumoniae; pH 7, urine isolate, nitrofurantoin): >64 µg/mL
MIC (Pseudomona aeruginosa; pH 5, pH 5, aspirado traqueal isolate, resistant to ampicillin, aztreonam, cefepime, ceftazidime, imipenem, meropenem): 32 µg/mL (≈ 120 µM)
MIC (Pseudomona aeruginosa; pH 5, pH 5, aspirado traqueal isolate, resistant to ampicillin, aztreonam, ceftazidime, imipenem, meropenem): 64 µg/mL (≈ 240 µM)
MIC (Pseudomona aeruginosa; pH 5, pH 5, aspirado traqueal isolate, resistant to ampicillin, ciprofloxacin, imipenem, meropenem): 32 µg/mL (≈ 120 µM)
MIC (Pseudomona aeruginosa; pH 5, pH 5, cateter isolate, resistant to ampicillin, aztreonam, cefepime, ceftazidime, imipenem, meropenem): 32 µg/mL (≈ 120 µM)
MIC (Pseudomona aeruginosa; pH 5, pH 5, hemocultivo isolate, resistant to cefepime, ceftazidime, ciprofloxacin, gentamicin): 32 µg/mL (≈ 120 µM)
MIC (Pseudomona aeruginosa; pH 7, pH 7, aspirado traqueal isolate, resistant to ampicillin, aztreonam, cefepime, ceftazidime, imipenem, meropenem): > 64 µg/mL
MIC (Pseudomona aeruginosa; pH 7, pH 7, aspirado traqueal isolate, resistant to ampicillin, aztreonam, ceftazidime, imipenem, meropenem): > 64 µg/mL
MIC (Pseudomona aeruginosa; pH 7, pH 7, aspirado traqueal isolate, resistant to ampicillin, ciprofloxacin, imipenem, meropenem): > 64 µg/mL
MIC (Pseudomona aeruginosa; pH 7, pH 7, cateter isolate, resistant to ampicillin, aztreonam, cefepime, ceftazidime, imipenem, meropenem): > 64 µg/mL
MIC (Pseudomona aeruginosa; pH 7, pH 7, hemocultivo isolate, resistant to cefepime, ceftazidime, ciprofloxacin, gentamicin): > 64 µg/mL
MIC (S. aureus; pH 5, pH 5, hemocultivo isolate (1st, r13)): 8 µg/mL (≈ 30.1 µM)
MIC (S. aureus; pH 5, pH 5, hemocultivo isolate (2nd, r14)): 8 µg/mL (≈ 30.1 µM)
MIC (S. aureus; pH 5, pH 5, hemocultivo isolate (3rd, r15)): 8 µg/mL (≈ 30.1 µM)
MIC (S. aureus; pH 5, pH 5, hemocultivo isolate, oxacillin, erythromycin, clindamycin, ciprofloxacin): 32 µg/mL (≈ 120 µM)
MIC (S. aureus; pH 5, pH 5, isolate from tracheal aspirate): 8 µg/mL (≈ 30.1 µM)
MIC (S. aureus; pH 7, pH 7, hemocultivo isolate (1st, r13)): 32 µg/mL (≈ 120 µM)
MIC (S. aureus; pH 7, pH 7, hemocultivo isolate (2nd, r14)): 32 µg/mL (≈ 120 µM)
MIC (S. aureus; pH 7, pH 7, hemocultivo isolate (3rd, r15)): 32 µg/mL (≈ 120 µM)
MIC (S. aureus; pH 7, pH 7, hemocultivo isolate, oxacillin, erythromycin, clindamycin, ciprofloxacin): 32 µg/mL (≈ 120 µM)
MIC (S. aureus; pH 7, pH 7, isolate from tracheal aspirate): 32 µg/mL (≈ 120 µM)
MIC (Klebsiella oxytica; pH 5, hemocultivo isolate): 64 µg/mL (≈ 240 µM)
MIC (Klebsiella oxytica; pH 7, hemocultivo isolate): > 64 µg/mL
storage stability [1]: high stability for months
EC50 [2]: 13 µM
antioxidant activity compared with reference antioxidants [2]: greater than the antioxidant activities of α-tocopherol and ascorbic acid

O=C1O[C@H]([C@@H](O)CO)C(O)=C1O [ascorbic acid, reference compound]
EC50 [2]: 45 µM

Cc1c(C)c2c(c(C)c1O)CC[C@@](C)(CCC[C@H](C)CCC[C@H](C)CCCC(C)C)O2 [α-tocoferol, reference compound]
EC50 [2]: 100 µM
